Patent publication US20090191144A1, “USE OF LIPID COMPONENTS AGAINST POLLEN ALLERGIES” (BEIERSDORF AG, priority 2008, published 2009)

Experiment: Viscosity of preferred lipids
Format: physicochemical

Molecule	Viskosity (in mPas) (s^−1 = 500)
Pentaerythrityl Tetraisostearate [DUB PTIS]	57 mPas
CC(C)CCCCCCCCCCCCCCCOC(=O)CC(O)C(=O)OCCCCCCCCCCCCCCCC(C)C (centres unmarked) [DUB MDIS, Diisostearyl Malate]	113 mPas
CCCCOCCOP(=O)(OCCOCCCC)OCCOCCCC [Hostaphat B 310, Tributoxyethylphosphate]	122 mPas
Tridecyl Trimellitate [DUB TMTD]	116 mPas
Triisostearin [Prisorine 2041 GTIS]	99 mPas
Triisononanoin [Isodragol]	67 mPas
Triisodecyl Trimelliate [DUB TMI]	111 mPas
Pentaerythrityl Tetraisostearate [Crodamol PTIS 3797]	390 mPas
CCCCCCCCCCCCCCCCCC(=O)OCCCC [Crodamol BS, Butyl Stearate]	100 mPas
PEG-2 Diethylhexanoate [Dermol 488]	110 mPas
CCCCC(CC)C(=O)OCC(COC(=O)C(CC)CCCC)(COC(=O)C(CC)CCCC)COC(=O)C(CC)CCCC (centres unmarked) [Trivent PE 48, Pentaerythrityl Tetraethylhexanoate]	116 mPas
CCCCCCCCCCC(CO)CCCCCCCC (centres unmarked) [Eutanol G, Octyldodecanol]	47.7 mPas
CC(C)CCCC(C)CCCC(C)CCCCC(C)CCCC(C)CCCC(C)C (centres unmarked) [Motif, Squalan]	220 mPas
Hydroxystearate Glycerol Triacetyle	65 mPas
